Measured values reported in patent publication US6737383B1, “Herbicidal oxadiazolidines” (priority 1999, dated 2004).

How the values were obtained:
[1] = system: cocklebur; experiment: Test C postemergence cocklebur; assay type: in vivo, Xanthium strumarium; settings: 0 to 100 scale, 0 no effect, 100 complete control
Summary of the method: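 Scores (0 = no effect, 100 = complete control) come from visual comparison with untreated controls after about 14–21 days. Spray formulation was a non-phytotoxic solvent mixture including surfactant; plants grew in a 60:40 sandy loam–potting mix blend.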

[2] = system: jointed goatgrass; experiment: Test E jointed goatgrass; assay type: in vivo, Aegilops cylindrica; settings: Postemergence
Procedure: (§1) Compounds evaluated in this test were formulated in a non-phytotoxic solvent mixture which included a surfactant and applied to plants that were in the 1- to 4-leaf stage (postemergence application). A mixture of sandy loam soil and greenhouse potting mix in a 60:40 ratio was used for the postemergence test.
(§2) Plantings of these crops and weed species were adjusted to produce plants of appropriate size for the postemergence test. All plant species were grown using normal greenhouse practices. Crop and weed species include annual bluegrass (Poa annua), blackgrass (Alopecurus myosuroides), black nightshade (Solanum nigra), chickweed (Stellaria media), common poppy (Papaver rhoeas), deadnettle (Lamium amplexicaule), downy brome (Bromus tectorum), field violet (Viola arvensis), galium (Galium aparine), green foxtail (Setaria viridis), Italian ryegrass (Lolium multiflorum), jointed goatgrass (Aegilops cylindrica), kochia (Kochia scoparia), lambsquarters (Chenopodium album), littleseed canarygrass (Phalaris minor), rape (Brassica napus), redroot pigweed (Amaranthus retroflexus), Russian thistle (Salsola kali), scentless chamomile (Matricaria inodora), spring barley (Hordeum vulgare), sugar beet (Beta vulgaris), sunflower (Helianthus annuus), ivyleaf speedwell (Veronica hederaefolia), spring wheat (Triticum aestivum), winter wheat (Triticum aestivum), wild buckwheat (Polygonum convolvulus), wild mustard (Sinapis arvensis), wild oat (Avena fatua), windgrass (Apera spica-venti) and winter barley (Hordeum vulgare).
(§3) Treated plants and untreated controls were maintained in a greenhouse for approximately 21 to 28 days, after which all treated plants were compared to untreated controls and visually evaluated. […] A dash response (-) means no test result.

[3] = system: chickweed; experiment: Test E chickweed; assay type: in vivo, Stellaria media; settings: Preemergence
[4] = system: field violet; experiment: Test E field violet; assay type: in vivo, Viola arvensis; settings: Preemergence
[5] = system: common poppy; experiment: Test E common poppy; assay type: in vivo, Papaver rhoeas; settings: Postemergence; for Plant response rating, Comnion poppy: Rate 125 g/ha
Procedure: as §1, §2, §3

[6] = system: hairy beggarticks; experiment: Test C postemergence hairy beggarticks; assay type: in vivo, Bidens pilosa; settings: 0 to 100 scale, 0 no effect, 100 complete control
Procedure: as §1, with “grown for various periods of time before treatment” for “in the 1- to 4-leaf stage”
Plantings of these crops and weed species were adjusted to produce plants of appropriate size for the postemergence test. All plant species were grown using normal greenhouse practices. Crop and weed species include arrowleaf sida (Sida rhombifolia), barnyardgrass (Echinochloa crus-galli), cocklebur (Xanthium strumarium), common ragweed (Ambrosia elatior), corn (Zea mays), cotton (Gossypium hirsutum), eastern black nightshade (Solanum ptycanthum), fall panicum (Panicum dichotomiflorum), field bindweed (Convolvulus arvensis), giant foxtail (Setaria faberii), hairy beggarticks (Bidens pilosa), ivyleaf morningglory (Ipomoea hederacea), johnsongrass (Sorghum halepense), ladysthumb smartweed (Polygonum persicaria), lambsquarters (Chenopodium album), large crabgrass (Digitaria sanguinalis), purple nutsedge (Cyperus rotundus), redroot pigweed (Amaranthus retroflexus), soybean (Glycine max), surinam grass (Brachiaria decumbens), velvetleaf (Abutilon theophrasti) and wild poinsettia (Euphorbia heterophylla).
Treated plants and untreated controls were maintained in a greenhouse for approximately 14, to 21 days, after which all treated plants were compared to untreated controls and visually evaluated. Plant response ratings, summarized in Table C, were based upon a 0 to 100 scale where 0 was no effect and 100 was complete control. A dash response (−) means no test result.

[7] = system: Green foxtail; experiment: Test D green foxtail; assay type: in vivo
Source text: Seeds, tubers, or plant parts of Alexandergrass (Brachiaria plantaginea), bermuda-grass (Cynodon dactylon), common pursiane (Portulaca oleracea), common ragweed (Ambrosia elatior), common groundsel (Senecio vulgaris), dallisgrass (Paspalum dilatatum), goosegrass (Eleusine indica), guineagrass (Panicum maximum), itchgrass (Rottboellia exaltata), Johnson grass (Sorghum halepense), large crabgrass (Digitaria sanguinalis), pitted morningglory (Ipomoea lacunosa), purple nutsedge (Cyperus rotundus), sandbur (Cenchrus echinatus), sourgrass (Trichachne insularis), Spanishneedles (Bidens bipinnata), surinam grass (Brachiaria decumbens) and tall mallow (Malva sylvestris) were planted into greenhouse pots of flats containing greenhouse planting medium. Plant species were grown in separate pots or individual compartments. Preemergence applications were made within one day of planting the seed or plant part.
Test chemicals were formulated in a non-phytotoxic solvent mixture which included a surfactant and applied preemergence to the surface of the pot containing seeds in a sandy loam soil. Untreated control pots and treated pots were placed in the greenhouse for growth and visually evaluated for injury 14 to 21 days after herbicide application. Plant response ratings, summarized in Table C, are based on a 0 to 100 scale where 0 is no injury and 100 is complete control. A dash (−) response means no test result.

[8] = system: morningglory; experiment: Test A morningglory; assay type: in vivo, Ipomoea spp.; settings: 0 to 10 scale where 0 is no effect and 10 is complete control
Summary of the method: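 Visual injury score, 0 (no effect) to 10 (complete control), vs untreated controls at ~11 d in greenhouse. Pre: soil drench on sandy loam. Post: spray to runoff, 1–2 leaf stage.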

[9] = system: velvetleaf; experiment: Test A velvetleaf; assay type: in vivo, Abutilon theophrasti; settings: 0 to 10 scale where 0 is no effect and 10 is complete control
Procedure: Seeds of barnyardgrass (Echinochloa crus-galli), crabgrass (Digitaria spp.), morningglory (Ipomoea spp.), and velvetleaf (Abutilon theophrasti) were planted into a sandy loam soil and treated preemergence by soil drench with test chemicals formulated in a non-phytotoxic solvent mixture which includes a surfactant At the same time, these crop and weed species were also treated postemergence sprayed to runoff, with test chemicals formulated in the same manner.
Plants ranged in height from two to eighteen cm and were in the one to two leaf stage for the postemergence treatment. Treated plants and untreated controls were maintained in a greenhouse for approximately eleven days, after which all treated plants were compared to untreated controls and visually evaluated for injury. Plant response ratings, summarized in Table A, are based on a 0 to 10 scale where 0 is no effect and 10 is complete control.

[10] = Rate 250 g/ha, 0 to 100 scale (0 no effect, 100 complete control)
[11] = Rate 500 g/ha, 0 to 100 scale, 0 no effect, 100 complete control
[12] = Rate 125 g/ha, 0 to 100 scale (0 no effect, 100 complete control)
[13] = Rate 500 g/ha, 0 to 100 scale where 0 is no effect and 100 is complete control
[14] = Rate 64 g/ha, Preemergence; 0 to 100 scale, 0 no injury, 100 complete control
[15] = Rate 125 g/ha, Preemergence; 0 to 100 scale, 0 no injury, 100 complete control
[16] = Rate 62 g/ha, 0 to 100 scale, 0 no effect, 100 complete control

Row | Compound | Plant response rating, Cocklebur ([1]; Rate 140 g/ha) | Plant response rating, Jointed goatgra ([2]; Rate 62 g/ha, 0 to 100 scale) | Plant response rating, Jointed goatgra ([2]; Rate 125 g/ha, 0 to 100 scale) | Plant response rating, Jointed goatgra [2, 10] | Plant response rating, Chickweed [3, 12] | Plant response rating, Chickweed ([3]; Rate 250 g/ha, 0 to 100 scale) | Plant response rating, Field violet [4, 12] | Plant response rating, Field violet ([4]; Rate 250 g/ha, 0 to 100 scale) | Plant response rating, Common poppy ([5]; Rate 62 g/ha, 0 to 100 scale) | Plant response rating, Comnion poppy ([5]; 0 to 100 scale) | Plant response rating, Common poppy [5, 10] | Plant response rating H. beggarticks ([6]; Rate 140 g/ha) | Plant response rating H. beggarticks ([6]; Rate 560 g/ha) | Green foxtail plant response rating [7, 14] | Plant response rating, Green foxtail [7, 14] | Plant response rating, Morningglory ([8]; Postemergence, Rate 1000 g/ha) | Plant response rating, Morningglory ([8]; Pre-emergence, Rate 2000 g/ha) | Plant response rating, Velvetleaf ([9]; Postemergence, Rate 1000 g/ha) | Plant response rating, Velvetleaf ([9]; Pre-emergence, Rate 2000 g/ha) | other results
1 | CCn1c(=O)on(C(=O)N(c2ccc(F)cc2F)C(C)C)c1=O [Compound 116] | 0 | 30 | 20 | 40 | 100 | 100 | 50 | 40 | 30 | 0 | 0 | 80 | 90 |  |  |  |  |  |  | Plant response rating, Cocklebur ([1]; Rate 560 g/ha): 0; Plant response rating, Cocklebur ([1]; Rate 1120 g/ha): 50; Plant response rating, Jointed goatgra [2, 11]: 50; Plant response rating, Chickweed [3, 13]: 100; Plant response rating, Field violet [4, 13]: 90; Plant response rating, Common poppy [5, 11]: 10
2 | CCn1c(=O)on(C(=O)N(c2ccc(F)cc2)C(C)C)c1=O [Compound 107] | 0 | 0 | 10 | 10 | 50 | 50 | 30 | 20 | 0 | 0 | 5 | 5 | 70 | 100 | 100 |  |  |  |  | Plant response rating, Cocklebur ([1]; Rate 280 g/ha): 50; Plant response rating, Green foxtail ([7]; Preemergence; Rate 16 g/ha; 0 to 100 scale, 0 no injury, 100 complete control): 100; Plant response rating, Green foxtail ([7]; Preemergence; Rate 32 g/ha; 0 to 100 scale, 0 no injury, 100 complete control): 100; Plant response rating, Green foxtail ([7]; Rate 16 g/ha; Preemergence; 0 to 100 scale, 0 no injury, 100 complete control): 100; Plant response rating, Green foxtail ([7]; Rate 32 g/ha; Preemergence; 0 to 100 scale, 0 no injury, 100 complete control): 100; Green foxtail plant response rating [7, 15]: 100; Plant response rating, Green foxtail [7, 15]: 100; Plant response rating, Green foxtail ([7]; Rate 250 g/ha; Preemergence; 0 to 100 scale): 100; Plant response rating, Green foxtail ([7]; Rate 500 g/ha, Preemergence; 0 to 100 scale): 100; Plant response rating, Chickweed [3, 16]: 80; Plant response rating, Field violet [4, 16]: 70; Plant response rating H. beggarticks ([6]; Rate 280 g/ha): 60; Plant response rating H. beggarticks ([6]; Rate 1120 g/ha): 95
3 | C=C(C)Cn1c(=O)on(C(=O)N(c2ccc(F)cc2)C(C)C)c1=O [Compound 139] |  |  |  |  |  |  |  |  |  |  |  |  |  | 98 | 98 |  |  |  |  | 
4 | CCOC(=O)Cn1c(=O)on(C(=O)N(c2ccc(F)cc2)C(C)C)c1=O [Compound 128] |  |  |  |  |  |  |  |  |  |  |  |  |  |  |  | 0 | 0 | 0 | 0 | 
5 | Cc1ccccc1Cn1c(=O)on(C(=O)N(c2ccc(Cl)cc2)C(C)C)c1=O [Compound 136] |  |  |  |  |  |  |  |  |  |  |  |  |  |  |  | 9 | 0 | 2 | 0 | 
